From patent US10954193B2 (Vanderbilt University, priority 2013, dated 2021)

The molecules below were run against recombinant Mcl-1 (residues 172-327) (Homo sapiens (Human), UniProt Q07820) (assay: Bak peptide binding assay, fluorescence polarization anisotropy competition (FITC-Bak), Mcl-1). Conditions: Table 3, binned ranges; FITC-Bak peptide 10 nM, Mcl-1 14 nM; read-out: Ki for inhibition of Mcl-1.
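Also: displacement of labeled Bak peptide read by fluorescence anisotropy, 10-point threefold dilutions from 20 µM top dose in 5% DMSO, 90 min incubation at room temperature.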
Experimental: Bak Peptide Binding Assay
Compound affinity was measured using a fluorescence polarization anisotropy competition assay. Anisotropy measurements were carried out in 384-well, black, flat-bottom plates (Greiner Bio-one, Monroe, N.C., USA). […] 10 nM FITC-Bak peptide and 14 nM recombinant Mcl-1 (residues 172-327) were added to assay buffer (3 mM dithiothreitol, 50 mM NaCl, 20 mM Tris, pH 7.5).
Compounds are diluted in DMSO in a 10-point, 3-fold serial dilution scheme. 2.5 uL compound is added to 47.5 uL of assay buffer containing FITC-Bak and protein, for a final DMSO concentration of 5% and a top concentration of 20 uM. […] The plate was mixed and incubated for 90 minutes at room temperature. Anisotropy is measured at excitation wavelength 480 nm and emission wavelength 535 nm using an EnVision Multi-label plate reader (PerkinElmer, Wellesley, Mass., USA).

Sequence of recombinant Mcl-1 (residues 172-327) (Q07820 172-327): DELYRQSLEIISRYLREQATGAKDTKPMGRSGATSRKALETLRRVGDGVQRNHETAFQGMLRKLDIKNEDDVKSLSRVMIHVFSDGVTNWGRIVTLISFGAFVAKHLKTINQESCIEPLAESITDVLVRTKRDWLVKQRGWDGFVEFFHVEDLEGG

Structure (SMILES) | Ki
Cc1cc(OCCCc2c(C(F)(F)F)n(Cc3ccc(C(=O)O)cc3)c3c(Br)cccc23)cc(C)c1Cl [Example 116, 4-((7-bromo-3-(3-(4-chloro-3,5-dimethylphenoxy)propyl)-2-(trifluoromethyl)-1H-indol-1-yl)methyl)benzoic acid] | 101 to 299 nM
Cc1cc(OCCCc2cn(CCC(=O)O)c3c(-c4c(COc5ccccc5)nn(C)c4C)cccc23)cc(C)c1Cl [Example 30, 3-(3-(3-(4-chloro-3,5-dimethylphenoxy)propyl)-7-(1,5-dimethyl-3-(phenoxymethyl)-1H-pyrazol-4-yl)-1H-indol-1-yl)propanoic acid] | 101 to 299 nM
Cc1cc(OCCCc2c(C)n(CC(=O)O)c3c(-c4c(C)noc4C)cccc23)cc(C)c1Cl [Example 66, 2-(3-(3-(4-chloro-3,5-dimethylphenoxy)propyl)-7-(3,5-dimethylisoxazol-4-yl)-2-methyl-1H-indol-1-yl)acetic acid] | 101 to 299 nM
Cc1cc(OCCCc2c(C)n(CCC(=O)NS(=O)(=O)c3ccccn3)c3c(-c4c(C)nn(C)c4C)cccc23)cc(C)c1Cl [Example 94, 3-(3-(3-(4-chloro-3,5-dimethylphenoxy)propyl)-2-methyl-7-(1,3,5-trimethyl-1H-pyrazol-4-yl)-1H-indol-1-yl)-N-(pyridin-2-ylsulfonyl)propanamide] | ≤ 100 nM
Cc1cc(OCCCc2cn(CCC(=O)O)c3cc(Cl)ccc23)cc(C)c1Cl [Example 13, 3-(6-chloro-3-(3-(4-chloro-3,5-dimethylphenoxy)propyl)-1H-indol-1-yl)propanoic acid] | 101 to 299 nM
Cc1cc(OCCCc2cn(CCC(=O)O)c3c(-c4ccccc4)cccc23)cc(C)c1Cl [Example 31, 3-(3-(3-(4-chloro-3,5-dimethylphenoxy)propyl)-7-phenyl-1H-indol-1-yl)propanoic acid] | 301 to 500 nM
Cc1cc(OCCCc2c(C(F)(F)F)n(Cc3cccc(C(=O)O)c3)c3c(-c4c(C)nn(C)c4C)c(Cl)ccc23)cc(C)c1Cl [Example 122, 3-((6-chloro-3-(3-(4-chloro-3,5-dimethylphenoxy)propyl)-2-(trifluoromethyl)-7-(1,3,5-trimethyl-1H-pyrazol-4-yl)-1H-indol-1-yl)methyl)benzoic acid] | ≤ 100 nM
Cc1cc(OCCCc2c(C)n(CCC(=O)NS(C)(=O)=O)c3c(-c4ccnn4C)cccc23)cc(C)c1Cl [Example 81, 3-(3-(3-(4-chloro-3,5-dimethylphenoxy)propyl)-2-methyl-7-(1-methyl-1H-pyrazol-5-yl)-1H-indol-1-yl)-N-(methylsulfonyl)propanamide] | ≤ 100 nM
Cc1cc(OCCCc2c(C(F)(F)F)n(CC(=O)O)c3c(-c4c(C)nn(C)c4C)cccc23)cc(C)c1Cl [Example 120, 2-(3-(3-(4-chloro-3,5-dimethylphenoxy)propyl)-2-(trifluoromethyl)-7-(1,3,5-trimethyl-1H-pyrazol-4-yl)-1H-indol-1-yl)acetic acid] | ≤ 100 nM
O=C(O)Cn1cc(CCCOc2cccc3ccccc23)c2c(Cl)cccc21 [Example 10, 2-(4-chloro-3-(3-(naphthalen-1-yloxy)propyl)-1H-indol-1-yl)acetic acid] | 1000 to 9990 nM
Cc1cc(OCCCc2cn(CCC(=O)O)c3c(-c4cc[nH]n4)cccc23)cc(C)c1Cl [Example 35, 3-(3-(3-(4-chloro-3,5-dimethylphenoxy)propyl)-7-(1H-pyrazol-3-yl)-1H-indol-1-yl)propanoic acid] | 101 to 299 nM
O=C(O)CCn1cc(CCCOc2cccc3ccccc23)c2ccccc21 [Example 11, 3-(3-(3-(naphthalen-1-yloxy)propyl)-1H-indol-1-yl)propanoic acid] | 1000 to 9990 nM
Cc1cc(OCCCc2c(C)n(CCC(=O)NS(C)(=O)=O)c3c(-c4c(C)nn(C)c4C)cccc23)cc(C)c1Cl [Example 85, 3-(3-(3-(4-chloro-3,5-dimethylphenoxy)propyl)-2-methyl-7-(1,3,5-trimethyl-1H-pyrazol-4-yl)-1H-indol-1-yl)-N-(methylsulfonyl)propanamide] | ≤ 100 nM
Cc1cc(OCCCn2cc(CC(=O)NS(C)(=O)=O)c3ccccc32)cc(C)c1Cl [Example 4, 2-(1-(3-(4-chloro-3,5-dimethylphenoxy)propyl)-1H-indol-3-yl)-N-(methylsulfonyl)acetamide] | 1000 to 9990 nM
Cc1cc(OCCCc2c(C)n(Cc3cccc(C(=O)O)c3)c3c(-c4c(C)nn(Cc5cccnc5)c4C)cccc23)cc(C)c1Cl [Example 112, 3-((3-(3-(4-chloro-3,5-dimethylphenoxy)propyl)-7-(3,5-dimethyl-1-(pyridin-3-ylmethyl)-1H-pyrazol-4-yl)-2-methyl-1H-indol-1-yl)methyl)benzoic acid] | 501 to 999 nM
Cc1cc(OCCCc2c(C)n(CCC(=O)O)c3c(-c4c(C)nn(CCN(C)C)c4C)cccc23)cc(C)c1Cl [Example 109, 3-(3-(3-(4-chloro-3,5-dimethylphenoxy)propyl)-7-(1-(2-(dimethylamino)ethyl)-3,5-dimethyl-1H-pyrazol-4-yl)-2-methyl-1H-indol-1-yl)propanoic acid] | 301 to 500 nM

Structure (SMILES) | Ki
Cc1cc(OCCCc2c(C)n(CCC(=O)NS(C)(=O)=O)c3c(-c4cccn4C)cccc23)cc(C)c1Cl [Example 84, 3-(3-(3-(4-chloro-3,5-dimethylphenoxy)propyl)-2-methyl-7-(1-methyl-1H-pyrrol-2-yl)-1H-indol-1-yl)-N-(methylsulfonyl)propanamide] | ≤ 100 nM
Cc1cc(OCCCc2c(C)n(Cc3cccc(C(=O)NS(C)(=O)=O)c3)c3c(-c4c(C)nn(C)c4C)cccc23)cc(C)c1Cl [Example 125, 3-((3-(3-(4-chloro-3,5-dimethylphenoxy)propyl)-2-methyl-7-(1,3,5-trimethyl-1H-pyrazol-4-yl)-1H-indol-1-yl)methyl)-N-(methylsulfonyl)benzamide] | ≤ 100 nM
Cc1cc(OCCCc2c(C)n(CCC(=O)O)c3c(-c4c(C)nn(Cc5ccccn5)c4C)cccc23)cc(C)c1Cl [Example 105, 3-(3-(3-(4-chloro-3,5-dimethylphenoxy)propyl)-7-(3,5-dimethyl-1-(pyridin-2-ylmethyl)-1H-pyrazol-4-yl)-2-methyl-1H-indol-1-yl)propanoic acid] | ≤ 100 nM
CS(=O)(=O)NC(=O)Cn1cc(CCCOc2cccc3ccccc23)c2c(Cl)cccc21 [Example 28, 2-(4-chloro-3-(3-(naphthalen-1-yloxy)propyl)-1H-indol-1-yl)-N-(methylsulfonyl)acetamide] | 1000 to 9990 nM
Cc1cc(OCCCc2c(C#N)n(CC(=O)NS(C)(=O)=O)c3ccccc23)cc(C)c1Cl [Example 50, 2-(3-(3-(4-chloro-3,5-dimethylphenoxy)propyl)-2-cyano-1H-indol-1-yl)-N-(methylsulfonyl)acetamide] | 1000 to 9990 nM
CS(=O)(=O)NC(=O)CCn1cc(CCCOc2cccc3ccccc23)c2ccccc21 [Example 19, 3-(3-(3-(naphthalen-1-yloxy)propyl)-1H-indol-1-yl)-N-(methylsulfonyl)propanamide] | 1000 to 9990 nM
Cc1cc(OCCCc2c(C)n(CCC(=O)NS(=O)(=O)c3ccc(Oc4ccccc4)cc3)c3c(-c4c(C)nn(C)c4C)cccc23)cc(C)c1Cl [Example 90, 3-(3-(3-(4-chloro-3,5-dimethylphenoxy)propyl)-2-methyl-7-(1,3,5-trimethyl-1H-pyrazol-4-yl)-1H-indol-1-yl)-N-((4-phenoxyphenyl)sulfonyl)propanamide] | ≤ 100 nM
CCn1nc(C)c(-c2cccc3c(CCCOc4cc(C)c(Cl)c(C)c4)c(C)n(CCC(=O)NS(=O)(=O)c4ccccc4)c23)c1C [Example 87, 3-(3-(3-(4-chloro-3,5-dimethylphenoxy)propyl)-7-(1-ethyl-3,5-dimethyl-1H-pyrazol-4-yl)-2-methyl-1H-indol-1-yl)-N-(phenylsulfonyl)propanamide] | ≤ 100 nM
Cc1cc(OCCCc2c(C)n(Cc3cccc(C(=O)NS(=O)(=O)c4cccnc4)c3)c3c(-c4c(C)nn(C)c4C)cccc23)cc(C)c1Cl [Example 129, 3-((3-(3-(4-chloro-3,5-dimethylphenoxy)propyl)-2-methyl-7-(1,3,5-trimethyl-1H-pyrazol-4-yl)-1H-indol-1-yl)methyl)-N-(pyridin-3-ylsulfonyl)benzamide] | 101 to 299 nM
Cc1cc(OCCCc2c(C)n(CCC(=O)NS(C)(=O)=O)c3cc(Cl)ccc23)cc(C)c1Cl [Example 46, 3-(6-chloro-3-(3-(4-chloro-3,5-dimethylphenoxy)propyl)-2-methyl-1H-indol-1-yl)-N-(methylsulfonyl)propanamide] | ≤ 100 nM
Cc1cc(OCCCc2c(C)n(CCC(=O)O)c3c(-c4cccn4C)cccc23)cc(C)c1Cl [Example 73, 3-(3-(3-(4-chloro-3,5-dimethylphenoxy)propyl)-2-methyl-7-(1-methyl-1H-pyrrol-2-yl)-1H-indol-1-yl)propanoic acid] | ≤ 100 nM
Cc1cc(OCCCc2cn(CCC(=O)O)c3c(Br)cccc23)cc(C)c1Cl [Example 29, 3-(7-bromo-3-(3-(4-chloro-3,5-dimethylphenoxy)propyl)-1H-indol-1-yl)propanoic acid] | 301 to 500 nM
Cc1cc(OCCCc2c(C(F)(F)F)n(Cc3cccc(C(=O)O)c3)c3c(Br)cccc23)cc(C)c1Cl [Example 115, 3-((7-bromo-3-(3-(4-chloro-3,5-dimethylphenoxy)propyl)-2-(trifluoromethyl)-1H-indol-1-yl)methyl)benzoic acid] | 101 to 299 nM
Cc1cc(OCCCc2c(C)n(Cc3ccc(C(=O)NS(C)(=O)=O)cc3)c3c(-c4c(C)nn(C)c4C)cccc23)cc(C)c1Cl [Example 131, 4-((3-(3-(4-chloro-3,5-dimethylphenoxy)propyl)-2-methyl-7-(1,3,5-trimethyl-1H-pyrazol-4-yl)-1H-indol-1-yl)methyl)-N-(methylsulfonyl)benzamide] | ≤ 100 nM
Cc1cc(OCCCc2c(C(F)(F)F)n(Cc3ccc(C(=O)O)cn3)c3c(Br)cccc23)cc(C)c1Cl [Example 119, 6-((7-bromo-3-(3-(4-chloro-3,5-dimethylphenoxy)propyl)-2-(trifluoromethyl)-1H-indol-1-yl)methyl)nicotinic acid] | 1000 to 9990 nM
